# Laboratory results as given in patent publication US8354387B2, “Methods and compositions for delivering siRNA into mammalian cells” (Centre National de la Recherche Scientifique, priority 2004, dated 2013).
# Key:
# [1] = tested on: GAPDH; assay: GAPDH protein levels by Western blotting after siRNA transfection; type: cell-based, human; settings: for reduction of GAPDH protein levels: Hs68, 30 hrs post transfection
# Protocol: FIG. 4: MPG-mediated delivery of siRNA induces a robust biological response. A/ MPG mediated delivery of siRNA targeting luciferase gene. MPG/siRNA or MPG^ΔNLS/DNA complexes were formed in DMEM at a charge ratio 10:1 and incubated for 30 min at 37° C., then overlaid onto Cos-7 or HeLa cells grown to 60% confluence and previously transfected with the pRL-SV40 plasmid (Promega) encoding the reporter gene luciferase under control of an SV40 promoter. After 30 min incubation at 37° C., 1 ml of fresh DMEM supplemented with 10% fetal calf serum was added onto the cells. Luciferase activity was measured 48 hrs after transfection. Transfections were also performed with Oligofectamine™ as a standard. Control experiments were performed with either naked siRNA or using a mismatch siRNA (dashed bars). B/ MPG-mediated delivery of siRNA targeting GAPDH gene: Western blot analysis. Different concentrations of siRNA (25, 50, 100 nM) were transfected with either MPG or MPG^ΔNLS and the levels of GAPDH protein were analyzed by Western blotting 30 hrs post transfection. Actin was used as a control to normalize protein loading. C/ MPG-mediated delivery of siRNA targeting GAPDH gene: Northern blot analysis. The kinetics of siRNA (50 nM)-induced degradation of GAPDH mRNA following transfection with either MPG or MPG^ΔNLS were analyzed by Northern blotting. Actin was used as a control to normalize mRNA levels in each sample. […]
# To further understand the impact of the NLS in MPG, we examined the biological response of an siRNA targeting the GAPDH gene following transfection into human fibroblasts (Hs68). […] Different concentrations of siRNA (25, 50, 100 nM) were transfected with either MPG or MPG^ΔNLS and the levels of GAPDH protein were analyzed by Western blotting 30 hrs post transfection. […] The kinetics of siRNA-induced degradation of GAPDH mRNA following transfection with either MPG or MPG^ΔNLS were analyzed by Northern blotting. […]
# [2] = tested on: Hs68 human fibroblasts; assay: Cellular uptake and localization of fluorescently labelled siRNA by fluorescence microscopy on living cells; type: cell-based; settings: for final subcellular localization of fluorescently-labeled siRNA: GAPDH siRNA, molar ratio 10/1, Hs68, living cells; for efficiency of siRNA delivery into cultured cells (% cells): fluorescently-labelled GAPDH siRNA, carrier/siRNA molar ratio 10/1, Hs68, 30 min, with serum
# Protocol: Hs68 (ATCC no CRL-1635), Cos-7 (ATCC no CRL-1651) and HeLa (ATCC no CCL-2) cell lines were cultured in Dulbecco's Modified Eagle's Medium supplemented with 2 mM glutamine, 1% antibiotics (streptomycin 10 000 μg/ml, penicillin, 10,000 IU/ml) and 10% (w/v) fetal calf serum (FCS) at 37° C. in a humidified atmosphere containing 5% CO2 as described previously (18). For MPG or MPG^ΔNLS-mediated gene delivery, peptide carrier/siRNA complexes were formed in DMEM or PBS, at a charge ratio 10:1 and incubated for 30 min at 37° C. Cells grown to 60% confluence were then overlaid with these preformed complexes. After 30 min incubation at 37° C., 1 ml of fresh DMEM supplemented with 10% fetal calf serum was added to the cells, without removing the overlay of carrier/siRNA, and cells were returned to the incubator.
# Transfections were performed for 1 hour, after which cells were extensively washed and either analyzed by fluorescence microscopy in order to determine the cellular localization of the fluorescently labeled oligonucleotide or returned to the incubator at 37° C. in the presence of fresh medium supplemented with serum.
# siRNA targeting the 3′UTR of GAPDH were from the Silencer™ GAPDH siRNA kit (Ambion). Fluorescent labeling of siRNA was performed using either the Fam or the Cy3 Silencer™ labeling kit (Ambion) and modified as described in the manufacturer's protocol. pRL-Luc reporter gene was from Promega and siRNA targeting luciferase sense ^5′[…]^3′ (SEQ ID NO:4) and antisense ^3′ […]^5′ (SEQ ID NO:5) and mismatch sense ^5′[…]^3′ (SEQ ID NO:6) and antisense ^3′[…]^5″ (SEQ ID NO:7) siRNA were obtained from Genset Oligos.
# RNA interference (siRNA) constitutes a powerful tool to silence gene expression post-transcriptionally (28, 29). In order to validate the potential of MPG-like carriers, the ability of MPG and MPG^ΔNLS to promote cellular uptake of siRNA was investigated. Fluorescently-labelled siRNA designed to silence GAPDH were complexed with both MPG and MPG^ΔNLS at a molar ratio of 10/1, incubated onto cultured Hs68 human fibroblasts in the presence of serum for 30 min, following which internalization and subcellular localization of siRNA were examined by fluorescence microscopy. Two different fluorescent probes (fluorescein and Cy-3), were used in order to avoid any artefacts which might have been associated with the nature of the probe. As fixation procedures have sometimes been reported to cause artifactual uptake (30-32), experiments were performed on living cells.
Sequence,reduction of GAPDH protein levels ([1]; 25 nM siRNA) [%],"efficiency relative to wild-type MPG ([1]; GAPDH siRNA, Hs68)",final subcellular localization of fluorescently-labeled siRNA [2],efficiency of siRNA delivery into cultured cells (% cells) [2],reduction of GAPDH protein levels ([1]; 100 nM siRNA) [%]
"GALFLGFLGAAGSTMGAWSQPKSKRKV (carrier peptide) [MPG^ΔNLS, MPG variant with single mutation of the second lysine residue in the NLS motif to serine]",80,at least 2 fold,remained mostly in the cytoplasm,about 90 % cells,
"GALFLGFLGAAGSTMGAWSQPKKKRKV (carrier peptide) [MPG, bipartite amphipathic peptide derived from fusion peptide domain of HIV-1 gp41 and NLS of SV40 large T antigen]",,,localized rapidly to the nucleus,about 90 % cells,60
